Patent publication US9409952B2, “Peptide-compound cyclization method” (Chugai Seiyaku Kabushiki Kaisha, priority 2011, dated 2016)
Starred links: 1 amine or outer side, 2 acyl side, 3 side chain; linkers in the order of their positions; H or OH if unused. Positions of bridges follow the written chain, without caps; N, C: chain ends. Non-standard residues stand in square brackets, D forms with d. Residues, ends and D or L forms follow the SMILES beside them. *: point of attachment. Phe(4-(CH2)5CO) = O=C([C@H](Cc1ccc(CCCCCC(=O)[*:3])cc1)N[*:1])[*:2]; Phe(3-(CH2)4CO) = O=C([C@H](Cc1cccc(CCCCC(=O)[*:3])c1)N[*:1])[*:2]; Ala(1H-tetrazol-5-yl) = N[C@@H](Cc1nnn[nH]1)C(=O)O; NMeF = CN[C@@H](Cc1ccccc1)C(=O)O; NMeI = CC[C@H](C)[C@H](NC)C(=O)O; NMeL = CN[C@@H](CC(C)C)C(=O)O; NMeV = CN[C@H](C(=O)O)C(C)C; NMeA = CN[C@@H](C)C(=O)O; Piperidide = C1CCN(*)CC1; Sar = CNCC(=O)O

Columns and labels:
[1] = Metabolic stability in human hepatic microsome; format: in vitro ADME; conditions: microsomes, pH 7.4; human hepatic microsome, NADPH(+); read-out: CL NADPH(+)
[2] = PAMPA (parallel artificial membrane permeability assay); format: in vitro ADME; conditions: PAMPA; membrane permeation rate (Pe); 50 mM MOPSO buffer pH 6.5 with 5.0% glycocholic acid, 37° C., 18 hours; read-out: iPAMPA Pe
How it was run: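 Artificial membrane was 10% (w/v) egg lecithin plus 0.5% (w/v) cholesterol in dodecane on a PVDF filter. A 10 mM DMSO stock was added at 0.5% (v/v) to donor buffer (50 mM MOPSO, pH 6.5, 5.0% glycocholic acid). After 18 h at 37 °C, LC/MS or LC/UV gave donor and acceptor levels for Pe.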

| Structure (SMILES) | microsomal CLint at 1 uM [1] [µL/min/mg] | Papp at 18 hours, 50 µM [2] [×10⁻⁶ cm/s] |
| --- | --- | --- |
| CC[C@H](C)[C@H]1C(=O)N(C)[C@@H](C)C(=O)N[C@H](C(=O)N2CCCCC2)Cc2ccc(cc2)CCCCCC(=O)N[C@@H]([C@@H](C)O)C(=O)N(C)[C@@H](Cc2ccccc2)C(=O)N(C)[C@@H](CC(C)C)C(=O)N[C@@H](C(C)C)C(=O)N2CCC[C@H]2C(=O)N(C)[C@@H](Cc2ccccc2)C(=O)N[C@@H](CC(C)C)C(=O)N(C)CC(=O)N1C [DP-883] (T[NMeF][NMeL]VP[NMeF]L[Sar][NMeI][NMeA][Phe(4-(CH2)5CO)]-Piperidide; lactam N-11) | 294 | 14 |
| CC[C@H](C)[C@H]1C(=O)N[C@@H](Cc2ccccc2)C(=O)N(C)[C@@H](Cc2ccccc2)C(=O)N[C@@H]([C@@H](C)O)C(=O)N2CCC[C@H]2C(=O)N[C@@H](CC(C)C)C(=O)N[C@H](C(=O)N2CCCCC2)Cc2cccc(c2)CCCCC(=O)NCC(=O)N(C)[C@@H](C(C)C)C(=O)N(C)[C@@H](CC(C)C)C(=O)N[C@@H](C)C(=O)N1C [DP-885] (G[NMeV][NMeL]A[NMeI]F[NMeF]TPL[Phe(3-(CH2)4CO)]-Piperidide; lactam N-11) | 75 | 30 |
| CC[C@H](C)[C@@H]1NC(=O)CCCCc2cccc(c2)C[C@@H](C(=O)N2CCCCC2)NC(=O)[C@H](Cc2ccccc2)N(C)C(=O)[C@H](CC(C)C)N(C)C(=O)CN(C)C(=O)[C@H]([C@@H](C)O)NC(=O)[C@H](C)N(C)C(=O)[C@H](C(C)C)N(C)C(=O)[C@H](C)NC(=O)[C@H](CC(C)C)N(C)C(=O)[C@H](Cc2ccccc2)N(C)C1=O [DP-886] (I[NMeF][NMeL]A[NMeV][NMeA]T[Sar][NMeL][NMeF][Phe(3-(CH2)4CO)]-Piperidide; lactam N-11) | 162 | 22 |
| C=C1CCC(=O)NCC(=O)N(C)[C@@H](C)C(=O)N[C@@H](CC(C)C)C(=O)N[C@@H](C(C)C)C(=O)N(C)[C@@H](CC(C)C)C(=O)N[C@@H](Cc2ccccc2)C(=O)N(C)[C@@H](Cc2ccccc2)C(=O)N[C@@H]([C@@H](C)CC)C(=O)N(C)[C@@H](C)C(=O)N[C@@H](CC(C)C)C(=O)N[C@@H]([C@@H](C)O)C(=O)N[C@H](C(=O)N2CCCCC2)Cc2ccc1cc2 [DP-887] | 103 | 3.9 |
| C=C1CCC(=O)N[C@@H](CC(C)C)C(=O)N[C@@H](C(C)C)C(=O)N(C)[C@@H](CC(C)C)C(=O)N[C@@H](Cc2ccccc2)C(=O)N(C)[C@@H](Cc2ccccc2)C(=O)N[C@@H]([C@@H](C)CC)C(=O)N(C)[C@@H](C)C(=O)N[C@@H](CC(C)C)C(=O)N[C@@H]([C@@H](C)O)C(=O)N[C@H](C(=O)N2CCCCC2)Cc2ccc1cc2 [DP-888] | 69 | 0.81 |
| C=C1CCC(=O)NCC(=O)N(C)[C@@H](C)C(=O)N[C@@H](CC(C)C)C(=O)N[C@@H](C(C)C)C(=O)N(C)[C@@H](CC(C)C)C(=O)N[C@@H](Cc2ccccc2)C(=O)N(C)[C@@H](Cc2ccccc2)C(=O)N[C@@H]([C@@H](C)CC)C(=O)N(C)[C@@H](C)C(=O)N[C@@H](CC(C)C)C(=O)N[C@@H]([C@@H](C)O)C(=O)N[C@H](C(=O)N2CCCCC2)Cc2cccc1c2 [DP-889] | 89 | 3.6 |
| CC[C@H](C)[C@@H]1NC(=O)[C@H](Cc2ccccc2)N(C)C(=O)[C@H](Cc2ccccc2)NC(=O)[C@H](CC(C)C)N(C)C(=O)[C@H](C(C)C)NC(=O)[C@H](CC(C)C)NC(=O)[C@H](C)N(C)C(=O)CNC(=O)CCCCc2cccc(c2)C[C@@H](C(=O)N2CCCCC2)NC(=O)[C@H]([C@@H](C)O)NC(=O)[C@H](CC(C)C)NC(=O)[C@H](C)N(C)C1=O [DP-893] (G[NMeA]LV[NMeL]F[NMeF]I[NMeA]LT[Phe(3-(CH2)4CO)]-Piperidide; lactam N-12) | 86 | 5.3 |
| CC[C@H](C)[C@@H]1NC(=O)[C@H](Cc2ccccc2)N(C)C(=O)[C@H](Cc2ccccc2)NC(=O)[C@H](CC(C)C)N(C)C(=O)[C@H](C(C)C)NC(=O)[C@H](CC(C)C)NC(=O)CCCCc2cccc(c2)C[C@@H](C(=O)N2CCCCC2)NC(=O)[C@H]([C@@H](C)O)NC(=O)[C@H](CC(C)C)NC(=O)[C@H](C)N(C)C1=O [DP-894] (LV[NMeL]F[NMeF]I[NMeA]LT[Phe(3-(CH2)4CO)]-Piperidide; lactam N-10) | 71 | 0.46 |
| CC[C@H](C)[C@H]1C(=O)N[C@@H](Cc2ccccc2)C(=O)N(C)[C@@H](Cc2ccccc2)C(=O)N[C@@H]([C@@H](C)O)C(=O)N2CCC[C@H]2C(=O)N[C@@H](CC(C)C)C(=O)N[C@H](C(=O)N2CCCCC2)Cc2cccc(c2)CCCCC(=O)N[C@@H](C(C)C)C(=O)N(C)CC(=O)N[C@@H](CC(C)C)C(=O)N(C)[C@@H](CC(C)C)C(=O)N[C@@H](C)C(=O)N1C [DP-896] (V[Sar]L[NMeL]A[NMeI]F[NMeF]TPL[Phe(3-(CH2)4CO)]-Piperidide; lactam N-12) | 57 | 13 |
| CC[C@H](C)[C@H]1C(=O)N[C@@H](Cc2ccccc2)C(=O)N(C)[C@@H](Cc2ccccc2)C(=O)N[C@@H]([C@@H](C)O)C(=O)N2CCC[C@H]2C(=O)N[C@@H](CC(C)C)C(=O)N[C@H](C(=O)N2CCCCC2)Cc2cccc(c2)CCCCC(=O)N[C@@H](CC(C)C)C(=O)N(C)[C@@H](CC(C)C)C(=O)N[C@@H](C)C(=O)N1C [DP-897] (L[NMeL]A[NMeI]F[NMeF]TPL[Phe(3-(CH2)4CO)]-Piperidide; lactam N-10) | 56 | 2.4 |
| CC[C@H](C)[C@@H]1NC(=O)[C@H](Cc2ccccc2)NC(=O)[C@@H]2CCCN2C(=O)[C@H](CC(C)C)N(C)C(=O)[C@H](Cc2ccccc2)NC(=O)[C@H](CC(C)C)NC(=O)[C@H]([C@@H](C)O)NC(=O)[C@H](C)N(C)C(=O)[C@H](C(C)C)NC(=O)CCCCc2cccc(c2)C[C@@H](C(=O)N2CCCCC2)NC(=O)[C@H](CC(C)C)NC(=O)CN(C)C1=O [DP-900] (V[NMeA]TLF[NMeL]PFI[Sar]L[Phe(3-(CH2)4CO)]-Piperidide; lactam N-12) | 244 | 1.3 |
| CC[C@H](C)[C@@H]1NC(=O)[C@H](Cc2ccccc2)NC(=O)[C@@H]2CCCN2C(=O)[C@H](CC(C)C)N(C)C(=O)[C@H](Cc2ccccc2)NC(=O)[C@H](CC(C)C)NC(=O)[C@H]([C@@H](C)O)NC(=O)CCCCc2cccc(c2)C[C@@H](C(=O)N2CCCCC2)NC(=O)[C@H](CC(C)C)NC(=O)CN(C)C1=O [DP-901] (TLF[NMeL]PFI[Sar]L[Phe(3-(CH2)4CO)]-Piperidide; lactam N-10) | 131 | 23 |
| CC[C@H](C)[C@@H]1NC(=O)[C@H](Cc2ccccc2)NC(=O)CCCCc2cccc(c2)C[C@@H](C(=O)N2CCCCC2)NC(=O)[C@H](CC(C)C)NC(=O)[C@H](CC(C)C)NC(=O)[C@H](C(C)C)NC(=O)[C@H](C)N(C)C(=O)[C@H](Cc2ccccc2)NC(=O)CNC(=O)[C@H]([C@@H](C)O)NC(=O)[C@H](CC(C)C)NC(=O)[C@@H]2CCCN2C1=O [DP-903] (FIPLTGF[NMeA]VLL[Phe(3-(CH2)4CO)]-Piperidide; lactam N-12) | 26 | 0.34 |
| CC(C)C[C@H]1NC(=O)C[C@@H](C(=O)N2CCCCC2)NC(=O)[C@H](CC(C)C)N(C)C(=O)[C@H](Cc2ccccc2)NC(=O)[C@H](CC(C)C)N(C)C(=O)[C@H](C)N(C)C(=O)[C@H](Cc2c[nH]cn2)NC(=O)[C@H](CC(C)C)N(C)C(=O)[C@H](Cc2ccccc2)N(C)C1=O [DP-904] ([dL][NMeF][NMeL]H[NMeA][NMeL]F[NMeL]D-Piperidide; lactam N-9) | 89 | 7.8 |
| CC(C)C[C@@H]1NC(=O)[C@H](CC(C)C)N(C)C(=O)[C@H]([C@@H](C)O)NC(=O)[C@H](Cc2ccccc2)N(C)C(=O)C[C@@H](C(=O)N2CCCCC2)NC(=O)[C@H](CC(C)C)N(C)C(=O)[C@H](Cc2c[nH]cn2)NC(=O)[C@H](Cc2ccccc2)N(C)C(=O)[C@H](Cc2ccccc2)N(C)C1=O [DP-905] ([NMeF]T[NMeL]L[NMeF][NMeF]H[NMeL]D-Piperidide; lactam N-9) | 73 | 0.6 |
| CC(C)C[C@@H]1NC(=O)[C@H](CC(C)C)N(C)C(=O)C[C@@H](C(=O)N2CCCCC2)NC(=O)[C@H](CC(C)C)N(C)C(=O)[C@H](C)N(C)C(=O)[C@H]([C@@H](C)O)NC(=O)[C@H](CC(C)C)N(C)C(=O)[C@H](Cc2ccccc2)N(C)C(=O)[C@H](Cc2c[nH]cn2)NC(=O)[C@H](Cc2ccccc2)N(C)C(=O)[C@H](CC(C)C)N(C)C1=O [DP-906] ([NMeL]L[NMeL][NMeF]H[NMeF][NMeL]T[NMeA][NMeL]D-Piperidide; lactam N-11) | 49 | 0.65 |
| CC(C)C[C@@H]1NC(=O)[C@H](CC(C)C)N(C)C(=O)C[C@@H](C(=O)N2CCCCC2)NC(=O)[C@H](CC(C)C)N(C)C(=O)[C@H](CC(C)C)N(C)C(=O)[C@H](Cc2nn[nH]n2)NC(=O)[C@H](CC(C)C)N(C)C(=O)[C@H](Cc2ccccc2)N(C)C(=O)[C@H](CC(C)C)NC(=O)[C@H](Cc2ccccc2)N(C)C(=O)[C@H](CC(C)C)N(C)C1=O [DP-908] ([NMeL]L[NMeL][NMeF]L[NMeF][NMeL][Ala(1H-tetrazol-5-yl)][NMeL][NMeL]D-Piperidide; lactam N-11) | 3 | 1.6 |
| CC(C)C[C@H]1NC(=O)[C@H](Cc2ccccc2)N(C)C(=O)[C@H](CC(C)C)N(C)C(=O)[C@H](C)NC(=O)[C@H](CC(C)C)N(C)C(=O)[C@H](Cc2ccccc2)N(C)C(=O)[C@H](Cc2nn[nH]n2)NC(=O)C[C@@H](C(=O)N2CCCCC2)NC(=O)[C@H](CC(C)C)N(C)C(=O)[C@H](CC(C)C)N(C)C1=O [DP-909] ([Ala(1H-tetrazol-5-yl)][NMeF][NMeL]A[NMeL][NMeF][dL][NMeL][NMeL]D-Piperidide; lactam N-10) | 15 | 12 |
